Measurements reported in ChEMBL document CHEMBL3885881, “DrugMatrix”.

Species: Rattus norvegicus
Test: DrugMatrix - Regimen: Daily Repeat
Assay type: toxicity, organism-based, Sprague-Dawley
Set-up: regimen Daily Repeat, gender Male, age 6-8 weeks
Settings: in vivo, po, route oral GAVAGE, vehicle .5 % CMC; for ABSOLUTE BASOPHIL / ABSOLUTE EOSINOPHIL / ABSOLUTE LYMPHOCYTE / ABSOLUTE MONOCYTE / ABSOLUTE SEGMENTED NEUTROPHIL / BASOPHIL / EOSINOPHIL / ERYTHROCYTE COUNT / HEMATOCRIT / HEMOGLOBIN / LEUKOCYTE COUNT / LYMPHOCYTE / MEAN CORPUSCULAR HEMOGLOBIN / MEAN CORPUSCULAR HEMOGLOBIN CONCENTRATION / MEAN CORPUSCULAR VOLUME / MONOCYTE / NEUTROPHIL / NUCLEATED RED BLOOD CELLS / PLATELET COUNT: tissue Blood; for ALANINE AMINOTRANSFERASE / ALBUMIN / ALKALINE PHOSPHATASE / ASPARTATE AMINOTRANSFERASE / BLOOD UREA NITROGEN / CARBON DIOXIDE / CHLORIDE / CHOLESTEROL / CREATINE PHOSPHOKINASE / CREATININE / GLUCOSE / LACTATE DEHYDROGENASE / LIPASE / PHOSPHORUS / POTASSIUM / SODIUM / TOTAL BILIRUBIN / TOTAL PROTEIN / URIC ACID: tissue Plasma
[1] = 580 mg/kg, 120 h, dose level High, time 5 day
[2] = […], 72 h, dose 2.4 mg/Kg, dose level Low, time 3 day
[3] = […], 120 h, dose 2.4 mg/Kg, dose level Low, time 5 day

## CN1C(=O)COc2c(C(=O)NC3CN4CCC3CC4)cc(Cl)cc21 (centres undefined) [AZASETRON]
[1]
  ABSOLUTE BASOPHIL: 0 CELLS/uL
  ABSOLUTE EOSINOPHIL: 63.33 CELLS/uL
  ABSOLUTE LYMPHOCYTE: 14100 CELLS/uL
  ABSOLUTE MONOCYTE: 291 CELLS/uL
  ABSOLUTE SEGMENTED NEUTROPHIL: 979 CELLS/uL
  BASOPHIL: 0%
  EOSINOPHIL: 0.33%
  ERYTHROCYTE COUNT: 6.34 x10E6/uL
  HEMATOCRIT: 38%
  HEMOGLOBIN: 15.07 G/DL
  LEUKOCYTE COUNT: 15.43 x10E3/uL
  LYMPHOCYTE: 91.67%
  MEAN CORPUSCULAR HEMOGLOBIN: 23.8 pg
  MEAN CORPUSCULAR HEMOGLOBIN CONCENTRATION: 39.67 G/DL
  MEAN CORPUSCULAR VOLUME: 60 fL
  MONOCYTE: 2%
  NEUTROPHIL: 6%
  NUCLEATED RED BLOOD CELLS: 0 /100WBC
  PLATELET COUNT: 1316.67 x10E3/uL
  ALANINE AMINOTRANSFERASE: 58.33 u/L
  ALBUMIN: 4.3 G/DL
  ALKALINE PHOSPHATASE: 295 u/L
  ASPARTATE AMINOTRANSFERASE: 101.33 u/L
  BLOOD UREA NITROGEN: 21.67 mg/dL
  CARBON DIOXIDE: 24 mmol/L
  CHLORIDE: 100.67 MEQ/L
  CHOLESTEROL: 74.33 mg/dL
  CREATINE PHOSPHOKINASE: 955.33 u/L
  CREATININE: 0.23 mg/dL
  GLUCOSE: 160 mg/dL
  LACTATE DEHYDROGENASE: 604.33 u/L
  LIPASE: 10.33 u/L
  PHOSPHORUS: 12.33 mg/dL
  POTASSIUM: 6.37 MEQ/L
  SODIUM: 144.33 MEQ/L
  TOTAL BILIRUBIN: 0.2 mg/dL
  TOTAL PROTEIN: 6.2 G/DL
  URIC ACID: 2.43 mg/dL
[2]
  ABSOLUTE BASOPHIL: 0 CELLS/uL
  ABSOLUTE EOSINOPHIL: 0 CELLS/uL
  ABSOLUTE LYMPHOCYTE: 13884.67 CELLS/uL
  ABSOLUTE MONOCYTE: 148 CELLS/uL
  ABSOLUTE SEGMENTED NEUTROPHIL: 1867.33 CELLS/uL
  BASOPHIL: 0%
  EOSINOPHIL: 0%
  ERYTHROCYTE COUNT: 5.62 x10E6/uL
  HEMATOCRIT: 34.23%
  HEMOGLOBIN: 13.3 G/DL
  LEUKOCYTE COUNT: 15.9 x10E3/uL
  LYMPHOCYTE: 87.33%
  MEAN CORPUSCULAR HEMOGLOBIN: 23.7 pg
  MEAN CORPUSCULAR HEMOGLOBIN CONCENTRATION: 38.87 G/DL
  MEAN CORPUSCULAR VOLUME: 60.97 fL
  MONOCYTE: 1%
  NEUTROPHIL: 11.67%
  NUCLEATED RED BLOOD CELLS: 0 /100WBC
  PLATELET COUNT: 1219.67 x10E3/uL
  ALANINE AMINOTRANSFERASE: 63.67 u/L
  ALBUMIN: 4.13 G/DL
  ALKALINE PHOSPHATASE: 374.67 u/L
  ASPARTATE AMINOTRANSFERASE: 87.33 u/L
  BLOOD UREA NITROGEN: 18.33 mg/dL
  CARBON DIOXIDE: 30.67 mmol/L
  CHLORIDE: 98.33 MEQ/L
  CHOLESTEROL: 73 mg/dL
  CREATINE PHOSPHOKINASE: 308.67 u/L
  CREATININE: 0.17 mg/dL
  GLUCOSE: 148.33 mg/dL
  LACTATE DEHYDROGENASE: 222 u/L
  LIPASE: 10 u/L
  PHOSPHORUS: 11.57 mg/dL
  POTASSIUM: 6.45 MEQ/L
  SODIUM: 141.9 MEQ/L
  TOTAL BILIRUBIN: 0.17 mg/dL
  TOTAL PROTEIN: 5.83 G/DL
  URIC ACID: 1.37 mg/dL
[3]
  ABSOLUTE BASOPHIL: 0 CELLS/uL
  ABSOLUTE EOSINOPHIL: 0 CELLS/uL
  ABSOLUTE LYMPHOCYTE: 13149.67 CELLS/uL
  ABSOLUTE MONOCYTE: 243.33 CELLS/uL
  ABSOLUTE SEGMENTED NEUTROPHIL: 1007 CELLS/uL
  BASOPHIL: 0%
  EOSINOPHIL: 0%
  ERYTHROCYTE COUNT: 5.6 x10E6/uL
  HEMATOCRIT: 35%
  HEMOGLOBIN: 14 G/DL
  LEUKOCYTE COUNT: 14.4 x10E3/uL
  LYMPHOCYTE: 91.33%
  MEAN CORPUSCULAR HEMOGLOBIN: 25.1 pg
  MEAN CORPUSCULAR HEMOGLOBIN CONCENTRATION: 40 G/DL
  MEAN CORPUSCULAR VOLUME: 62.67 fL
  MONOCYTE: 1.67%
  NEUTROPHIL: 7%
  NUCLEATED RED BLOOD CELLS: 0 /100WBC
  PLATELET COUNT: 1192 x10E3/uL
  ALANINE AMINOTRANSFERASE: 54.33 u/L
  ALBUMIN: 4.1 G/DL
  ALKALINE PHOSPHATASE: 274.67 u/L
  ASPARTATE AMINOTRANSFERASE: 82 u/L
  BLOOD UREA NITROGEN: 18.67 mg/dL
  CARBON DIOXIDE: 28.67 mmol/L
  CHLORIDE: 99.67 MEQ/L
  CHOLESTEROL: 72 mg/dL
  CREATINE PHOSPHOKINASE: 240 u/L
  CREATININE: 0.19 mg/dL
  GLUCOSE: 154.67 mg/dL
  LACTATE DEHYDROGENASE: 169 u/L
  LIPASE: 10 u/L
  PHOSPHORUS: 10.83 mg/dL
  POTASSIUM: 6.08 MEQ/L
  SODIUM: 143.3 MEQ/L
  TOTAL BILIRUBIN: 0.27 mg/dL
  TOTAL PROTEIN: 6 G/DL
  URIC ACID: 1.3 mg/dL
